Where two headings read alike, the source gives them in different places. No end group written: not given here.
Legend:
[1] = Stability in culture media and on long-term storage; settings: no data shown
[2] = system: βIII-tubulin+ retinal neurons
Description: For all in vitro experiments, adult 6–8-week-old female Sprague–Dawley rats weighing 170–220 g were used. Culture experiments included retinal cells treated with: (1), Neurobasal-A (NBA) alone (Control); and equimolar concentrations of (2), 2.16; (3) 5.4; (4), 10.8 and (5), 21.6 pM PEDF-34/-44; and (6), ciliary neurotrophic factor (CNTF: Peprotech, London, UK), as a positive control at an optimal neuroprotective/axogenic concentration of 440.5 pM, established by us previously ([Ahmed et al., 2009; Douglas et al., 2009]). […] All experiments were performed in triplicate and repeated on three independent occasions.
Mixed adult rat retinal cultures containing enriched populations of retinal neurons, including RGCs, were prepared from 6–8-week-old adult female Sprague–Dawley rats, as described previously ([Ahmed et al., 2006b, 2009, 2010; Douglas et al., 2009; Vigneswara et al., 2013]). Briefly, retinal cells were dissociated using a Papain dissociation kit according to the manufacturer's instructions (Worthington Biochemicals, Lakewood, NJ, USA). […]
The mean number of βIII-tubulin^+ neurons surviving, with neurites and the mean neurite length were quantified as described by us previously ([Vigneswara et al., 2013, 2014]). Briefly, chamber slides were anonymised by a second investigator and βIII-tubulin^+ neuronal soma and neurites quantified in 9 quadrants/well using Axiovision software (Version 4.8; Zeiss) and ImagePro (Version 6.3; Media Cybernetics, Bethesda, MD, USA). Of the 125,000 cells/well plated, the total numbers of neurons in each experiment were determined by βIII-tubulin^+ immunocytochemistry after allowing 30 min for cells to adhere to glass culture slides. […] Neurite outgrowth from at least 180 neurons/condition from the 9 wells was measured, except in control (NBA) cultures, in which a total of 108 neurons were measured.

[3] = single eye drop, ELISA

Sequence: DPFFKVPVNKLAAAVSNFGYDLYRVRSSTSPTTN [PEDF-34]
- stability in culture media ([1]; PEDF-34 compared with PEDF-44): equally stable
- neurotrophic properties after long-term storage [1]: retained their neurotrophic properties
- fold increase in βIII-tubulin+ neuron numbers compared to untreated cultures ([2]; 5.4 pM, 4 days in culture): 4.5 fold
- more neuroprotective than PEDF-44 in vitro ([2]; PEDF-34 versus equimolar PEDF-44, retinal cultures): 43%
- level of total PEDF in the retina ([3]; 1.88 nM dose (peak), 0.5 h): 0.18 ± 0.007 nM
- level of total PEDF in the vitreous ([3]; 1.88 nM dose (peak), 0.5 h, 6 animals (12 eyes)): 0.42 ± 0.01 nM
- peak level of total PEDF in the retina ([3]; 4 h): 0.24 ± 0.005 nM
- peak level of total PEDF in the vitreous ([3]; 4 h): 0.39 ± 0.004 nM
- peak level of total PEDF in the retina ([3]; 24 h): 0.12 ± 0.002 nM
- peak level of total PEDF in the vitreous ([3]; 24 h): 0.21 ± 0.004 nM

Reference: paper PMC4604765, “Eye drop delivery of pigment epithelium-derived factor-34 promotes retinal ganglion cell neuroprotection and axon regeneration” (Molecular and Cellular Neurosciences, 2015)
